These results are taken from US20090093539A1, “ANTI-ANGIOGENIC COMPOSITIONS AND METHODS OF USE THEREOF” (priority 2007, published 2009).

Format in all cases: cell-based
In test [1] the test system is Bovine Cardio-Pulmonary Artery Endothelial (CPAE) cells. In words: endothelial cell proliferation assay (cellular acid phosphatase readout). As to the method:
An endothelial cell proliferation assay was carried out according to the procedures of Connally, et al. (1986) (Anal. Biochem. 152:136-140) with modifications (Liang and Wong (2000) ANGIOGENESIS: FROM THE MOLECULAR TO INTEGRATIVE PHARMACOLOGY, edited by Maradoudakis, Kluwer Academic/Plenum Publishers, New York, pp 209-223). Bovine Cardio-Pulmonary Artery Endothelial (CPAE) cells acquired from American Type Culture Collection (ATCC; ATCC No. CCL-209) were grown to nearly 95% confluence in MEM-10E. The cells were released from the tissue culture flask with a 0.25% trypsin solution and plated in 24-well tissue culture plates in the same culture medium at a density of 10,000 cells/well. After the plates were incubated for 8 hours at 37° C. in a 5% carbon dioxide incubator, assay samples and control samples were added. Each sample was loaded in two different wells at 100 μl/well to ensure reproducibility. After incubation with the sample for 60 hours, the medium was aspirated, and the number of cells was measured on the basis of the calorimetric measurement of cellular acid phosphatase.

Test [2] relates to SW480 (Colon Cancer) cancer cell line. As to the kind of experiment: inhibition of cancer cell lines in vitro: SW480. The following applies: about 2 micrograms per milliliter. The source says:
(§1) 15,16-dihyrotanshinone I is also a potent inhibitor of several cancer cell lines in vitro, including the SW480 (Colon Cancer) and the HTB 72 (Melanoma) cancer cell lines. At a very low concentration of about 2 micrograms per milliliter, 100% inhibitions are achieved.

The test system of test [3] is HTB 72 (Melanoma) cancer cell line. As to the kind of experiment: inhibition of cancer cell lines in vitro: HTB 72. The conditions noted are these: about 2 micrograms per milliliter.
From the text: as §1

In general, inhibition refers to the drop in the measured response relative to a control, in per cent. For the compound `Cc1cccc2c3c(ccc12)C1=C(C(=O)C3=O)C(C)CO1` (stereo not shown) [15,16-dihydrotanshinone I, 15,16-dihydrotanshinone], in test [1] (Bos taurus, Endothelial cell, 50 μg/ml, 60 hours incubation, read-out: endothelial cell growth inhibition), the inhibition at 50 µg/mL is 84.4%. In addition, the “inhibition of endothelial cell proliferation, concentration-dependent study (FIG. 1)” value in test [1] (another 15,16-dihydrotanshinone I sample, result in words) is on record as “inhibits endothelial cell proliferation in a concentration-dependent manner”. Also, the “inhibition of SW480 (Colon Cancer) cell line” value in test [2] is 100%. Besides, in test [3], the “inhibition of HTB 72 (Melanoma) cell line” value turned out to be 100%.
